Experimental data from patent publication US12404332B2, “Methods for diagnosing and treating cancers” (Research Development Foundation, priority 2020, dated 2025).
Entries after “also recorded” stand apart in the source; their conditions may differ.

How the values were obtained:
[1] = tested on: RT4 human bladder cancer cells; assay: In vitro viability (MTT) of CTRL versus PD-L1^KO RT4 cells; type: cell-based; details: for sensitivity of PD-L1^KO versus control RT4 cells to the agent: monotherapy
Description: (§1) Cells (1×10^3) were plated in 96 well plastic culture plates in respective medium and treated for 5 days with DDRi or 3 days with gemcitabine at indicated concentrations. Drug concentrations were carefully optimized in preliminary work not shown. Cell viability was by MTT (3-(4,5-dimethylthiazol-2-yl)-2,5-diphenyl tetrazolium bromide) at 5 mg/ml. Absorbance was measured at 540 nm. Results are presented as a mean+/−SEM of ≥6 replicates. Total cells and viability were confirmed using a Vi-Cell-XR (Beckman Coulter).

[2] = tested on: γH2AX in RT4 cells; assay: γH2AX immunoblot (DNA damage) in RT4 cells; type: cell-based, human
Description: (§2) Immunoblotting was performed as described (Clark et al., 2016; Gupta et al., 2016). Protein was measured by BCA (ThermoFisher). Cell Signaling antibodies were phospho-histone H2A.X (#9718), phospho-Chk1^Ser345 (#2348), phosph-Chk2^Thr68 (#2197), phospho-ATM^Ser1981 (#5883), phospho-ATR^Ser428 (#2853), total-Chk1 (#2360), total-chk2 (#2662), total-ATM (#2873), total-ATR (#13934), total-NBS1 (#14956), total-Rad50 (#3427), RAD51, vinculin (#13901), beta-actin (#12620), human-PD-L1 (#13684), mouse-PD-L1. Abcam antibodies were (ab3801) and (ab80276) and total-BRCA1 was R&D MAB22101. All were used as per manufacturer's recommendation.

[3] = tested on: γH2AX in ID8agg cells; assay: γH2AX immunoblot (DNA damage) in ID8agg cells; type: cell-based, mouse
Description: as §2

[4] = tested on: PD-L1; assay: PD-L1 after DNA damaging agents; type: cell-based
[5] = tested on: ID8agg murine ovarian cancer cells; assay: In vitro viability (MTT) of CTRL versus PD-L1^KO ID8agg cells; type: cell-based, mouse; details: for sensitivity of PD-L1^KO versus control ID8agg cells to the agent: monotherapy
Description: as §1

[6] = tested on: ID8agg cells; assay: Erlotinib plus olaparib in ID8agg cells (MTT); type: cell-based, mouse
Description: 1,000 ID8agg cells were plated per well in 96 well plates. Cells were treated with 1, 2, or 3 μM of erlotinib and 5 μM or olaparib.

[7] = tested on: Chk2; assay: Chk2 protein content by immunoblot in B16-F10 cells; type: cell-based, mouse; details: PD-L1^KO but not CTRL B16-F10 cells
[8] = tested on: B16 murine melanoma cells; assay: In vitro viability (MTT) of CTRL versus PD-L1^KO B16 cells; type: cell-based, mouse
Description: as §1

[9] = tested on: CTRL or PD-L1^KO MB49 tumors; assay: MB49 tumor growth in NSG mice; type: in vivo, mouse; details: PD-L1^KO but not control MB49 tumors
Description: (§3) NSG mice were challenged with MB49 (0.3×10^6 cells) subcutaneously on opposite flanks. Olaparib (daily 25 mg/kg, 4% DMSO) was injected intraperitoneally on days 3-11. 4T1 (0.5×10^6 cells) were injected into mammary fat pads of NSG mice with Matrigel (1:1, Corning). Rabusertib (LY2602618, 4% DMSO) was administered intraperitoneally on day 3 (10 mg/kg) and days 10 and 17 (1 mg/kg).

[10] = tested on: MB49 murine bladder cancer cells; assay: In vitro viability (MTT) of CTRL versus PD-L1^KO MB49 cells; type: cell-based, mouse
Description: as §1

[11] = tested on: CTRL or PD-L1^KO B16 tumors; assay: B16 tumor growth in wild type or RAG2^KO mice; type: in vivo, mouse
Description: B16 cells were injected subcutaneously on opposite flanks into BL6 (0.5×10^6 cells) or RAG2^KO mice (0.4×10^6). Olaparib was administered daily intraperitoneally (50 mg/kg, 4% DMSO) on days 3-13. Tumors were measured with Vernier calipers and volume calculated as (length×width^2)/2. Mice were sacrificed when tumors reached ˜1500 mm^3 or if distressed.

[12] = tested on: UV induced TpN^61R derived CD274^+/+ or CD274^−/− melanoma cells; assay: Viability of de novo Nras CD274^+/+ versus CD274^−/− melanoma cells; type: cell-based, mouse; details: in vitro
Text: (§4) FIGS. 26A-H: De novo PD-L1^KO tumors phenocopy important aspects of genetic PD-L1 depletion in established tumors. FIG. 26A, Melanoma-free survival of melanocyte specific CD274^fl,fl TpN^61R (KO) versus littermate (WT) autochthonous mice under conditions shown. FIG. 26B, Validation of PD-L1 expression by immunoblot (IB) of melanoma cells derived from UV induced (4.5 Kj/m^2) WT (CD274^+/+) or melanocyte specific CD274^KO (CD274^−/−) mice±in vitro interferon (IFN)-γ treatment. Viability curves of CD274^+/+ versus CD274^−/− cells treated with the selective Chk1 inhibitors FIG. 26C, prexasertib […] or FIG. 26D, rabusertib (LY2603618) in vitro at indicated concentrations. FIG. 26E, IB analysis of PD-L1, ATM, Chk2, and γH2AX of vehicle or rabusertib-treated CD274^+/+ and CD274^−/− cell lines. FIGS. 26F-H, Tumor growth curves in WT C57BL/6J mice (n=10 tumors/group) challenged with UV induced TpN^61R derived CD274^+/+ or CD274^−/− melanoma cells and treated with rabusertib (Chk1i, LY2603618) on the indicated treatment schedule. P values, two-way ANOVA.

[13] = tested on: CTRL and PD-L1^KO RT4 cells; assay: Viability of RT4 cells treated with Chk1 inhibitor plus atezolizumab; type: cell-based, human; details: in vitro, absence of immune cells
Description: (§5) FIGS. 27A-H: Anti-PD-L1 antibodies mimic genetic PD-L1 depletion to impair tumor cell-intrinsic DDR signals and promote sensitivity to Chk1 inhibition in vitro and in vivo. Cell viability of FIG. 27A, CTRL and FIG. 27B, PD-L1^KORT4 cells treated with LY2603618 (Chk1 inhibitor) as shown plus IgG1 isotype or atezolizumab (atezo, 3 μg/ml) for 72 hours in vitro. Mean+SEM, n=6 replicates, ***, P<0.001, unpaired t-test. FIG. 27C, Immunoblot (IB) analysis of ATM, Chk2, γH2AX and vinculin (VINC) of RT4 cells treated in vitro with isotype, atezolizumab, Chk1i, or their combination. FIG. 27D, Viability of 4T1 cells as in panel A substituting anti-murine PD-L1 and isotype controls. FIG. 27E, IB of 4T1 as in panel FIG. 27C. FIG. 27F, Tumor curves of NSG mice (n=10 tumors/group) challenged with 4T1 tumor cells and treated with Chk1i±αPD-L1. FIG. 27G, Tumor curves and FIG. 27H, tumor weights in WT […] mice challenged and treated as in panel FIG. 27F. P values, two-way ANOVA.

[14] = tested on: human MDA-MB-231 triple negative breast cancer cells; assay: In vitro sensitivity of PD-L1^lo versus CTRL MDA-MB-231 cells; type: cell-based
[15] = tested on: TpN^61R derived CD274^+/+ or CD274^−/− melanoma tumors; assay: Growth of de novo PD-L1 null versus replete melanoma in C57BL/6J mice; type: in vivo, mouse; details: C57BL/6J wild type mice
Text: as §4

[16] = tested on: 4T1 tumors; assay: 4T1 tumors in mice treated with Chk1i ± αPD-L1; type: in vivo, mouse; details: wild type mice
Description: as §5

[17] = tested on: 4T1 murine breast cancer cells; assay: In vitro viability (MTT) of CTRL versus PD-L1^lo 4T1 cells; type: cell-based, mouse; details: listed as Chk1i
Description: as §1

[18] = tested on: CTRL or PD-L1^lo 4T1 tumors; assay: 4T1 tumor growth in NSG mice; type: in vivo, mouse; details: PD-L1^lo but not control 4T1 tumors, NSG females
Description: as §3

Question: How did the “fold more sensitive to gemcitabine, PD-L1^KO versus control cells” value ([1]; RT4 cells) turn out when `Nc1ccn([C@@H]2O[C@H](CO)[C@@H](O)C2(F)F)c(=O)n1` [gemcitabine] was run?
Answer: 2 fold

Question: What about the “sensitivity of PD-L1^KO versus control RT4 cells to the agent” value [1] of the same molecule?
Answer: substantially lower viability

Question: And the “γH2AX following treatment, PD-L1^KO versus control cells” value [2]?
Answer: markedly elevated; also recorded: accumulated more γH2AX

Question: What about the “γH2AX following treatment, PD-L1^KO versus control cells” value [3] of the same molecule?
Answer: markedly elevated

Question: And the “PD-L1 after DNA damaging agent” value [4]?
Answer: increased PD-L1

Question: And the “fold more sensitive to gemcitabine, PD-L1^KO versus control cells” value ([5]; ID8agg cells)?
Answer: 29 fold

Question: `C#Cc1cccc(Nc2ncnc3cc(OCCOC)c(OCCOC)cc23)c1` [erlotinib] was tested. Which “olaparib activity in combination” value ([6]; FIG. 46A) did it give?
Answer: Olaparib activity is seen with erlotinib

Question: And the “PD-L1 depletion over time” value ([6]; previous western, 24 hours, but not at 48 hours)?
Answer: only depletes PD-L1 for short periods of time

Question: For `CO/C1=C\C(C)=C\[C@@H](C)[C@@H](O)[C@@H](C)C/C(C)=C/C=C/[C@H](OC)[C@@H]([C@@H](C)[C@@H](O)[C@H](C)[C@@]2(O)C[C@@H](O)[C@H](C)[C@@H](C(C)C)O2)OC1=O` [Bafilomycin A1], which Chk2 accumulation [7] is on record?
Answer: led to Chk2 accumulation

Question: With `O=C(c1cc(Cc2n[nH]c(=O)c3ccccc23)ccc1F)N1CCN(C(=O)C2CC2)CC1` [olaparib] as the molecule, how does the “sensitivity of PD-L1^KO versus control RT4 cells to the agent” value [1] read?
Answer: Minimal effects

Question: What about the “cytotoxicity against PD-L1^KO versus control B16 cells” value [8] of the same molecule?
Answer: Moderate differences

Question: And the “tumor growth and weight after treatment” value [9]?
Answer: robustly growth inhibited and weighed less

Question: What about the “sensitivity of PD-L1^KO versus control MB49 cells to the agent” value [10] of the same molecule?
Answer: more sensitive

Question: And the “limiting PD-L1^KO B16 tumors” value ([11]; RAG2^KO mice lacking adaptive immunity)?
Answer: ineffective

Question: What about the “control of PD-L1^KO versus control B16 growth” value ([11]; wild type mice) of the same molecule?
Answer: significantly more effective

Question: And the “sensitivity of PD-L1^KO versus control ID8agg cells to the agent” value [5]?
Answer: Minimal effects

Question: Which “synthetic lethality in induced PD-L1^KO tumors” value [12] does the source give for `Cc1cnc(NC(=O)Nc2cc(Br)c(C)cc2OC[C@@H]2CNCCO2)cn1` [rabusertib] here?
Answer: exhibited synthetic lethality

Question: And the “viability of RT4 cells, single agent” value [13]?
Answer: expected dose-response toxicity

Question: And the “cytotoxicity in PD-L1^KO versus control RT4 cells” value [1]?
Answer: over 15 fold

Question: And the “sensitivity of PD-L1^KO versus control RT4 cells to the agent” value [1]?
Answer: striking cytotoxicity

Question: What about the “sensitivity of PD-L1^lo versus CTRL MDA-MB-231 cells” value [14] of the same molecule?
Answer: more sensitive

Question: What about the “control of in vivo growth, PD-L1 null versus PD-L1 replete tumors” value [15] of the same molecule?
Answer: controlled in vivo growth significantly better

Question: What about the “cytotoxicity against PD-L1^KO versus control B16 cells” value [8] of the same molecule?
Answer: striking cytotoxicity

Question: And the “PD-L1 after DNA damaging agent” value [4]?
Answer: increased PD-L1

Question: What about the “4T1 tumors in vivo” value [16] of the same molecule?
Answer: failed to benefit

Question: What about the “sensitivity of PD-L1^lo versus control 4T1 cells to the agent” value [17] of the same molecule?
Answer: significantly growth inhibited; also recorded: enhanced sensitivity

Question: And the “sensitivity of PD-L1^KO versus control ID8agg cells to the agent” value ([5]; listed as Chk1i)?
Answer: enhanced sensitivity

Question: And the “tumor sensitivity to single agent treatment” value [18]?
Answer: particularly sensitive
